Starred links: 1 amine or outer side, 2 acyl side, 3 side chain; linkers in the order of their positions; H or OH if unused. Residues, ends and D or L forms follow the SMILES beside them. *: point of attachment. AMC = Cc1cc(=O)oc2cc(N*)ccc12; Suc = O=C(CCC(=O)[*:2])[*:1]; Tos = Cc1ccc(S(=O)(=O)*)cc1; Cbz = O=C(OCc1ccccc1)*; Boc = CC(C)(C)OC(=O)*; Bz = O=C(c1ccccc1)*
How the values were obtained:
[1] = tested on: E/S products from mature F. hepatica; experiment: Specific activity against fluorogenic substrates by E/S products, adult flukes; type: biochemical, Fasciola hepatica; conditions: E/S products of adult flukes; means of duplicate results
Procedure: (§1) Mature flukes were removed from the bile ducts of bovine livers obtained at an abbattoir. Immature parasites were obtained from the liver of male Wistar rats three and five weeks after infection with 20 metacercariae.
(§2) Newly excysted juvenile (NEJ), 3 week-old, 5 week-old and mature F. hepatica were maintained in vitro over a period of 3 days. The culture medium, removed daily, was then assayed for Cathepsin L-like activity using the fluorogenic substrate Z-phe-arg-AMC. Cathepsin L-like activity was present in the E/S products from all stages examined. Whilst the Cathepsin L-like activity increased on a daily basis in the NEJ E/S products, indicating an increase in its secretion with time, the activity of this proteinase in the EIS of all other stages decreased over the same time period. The proteinase activity in the E/S of each liver fluke stage was compared using three arginine-containing fluorogenic peptide substrates. These substrates were chosen on the basis of their affinity for lysosomal cathepsin enzymes; cathepsin L (Z-phe-arg-AMC), cathepsin B (Z-arg-arg-AMC) and cathepsin H (Z-arg-AMC). Significant activity was only detected using the Z-phe-arg-AMC substrate and similar results were obtained for all liver fluke stages examined (Table 2 below).

F. hepatica cathepsin L1 = experiment: Enzyme kinetic studies, cathepsin L1; type: biochemical, Fasciola hepatica; conditions: 0.1M glycine pH 7.0, 37° C.
Procedure: (§3) The kinetic constants of F. hepatica cathepsins L1 and L2 enzymes were determined for 11 different substrates: Z-Phe-Arg-AMC, Bz-Phe-Val-Arg-AMC, Suc-Leu-Leu-Val-Tyr-AMC, H-Leu-Val-Tyr-AMC, Tos-Gly-Pro-Lys-AMC, Tos-Gly-Pro-Arg-AMC, Boc-Val-Pro-Arg-AMC, Z-Arg-Arg-AMC, Z-Arg-AMC, Suc-Ala-Phe-Lys-AMC and Boc-Val-Leu-Lys-AMC. One mg of fluorogenic substrate was dissolved in 100 μl of dimethyl formamide. This stock solution was diluted in 0.1M glycine pH 7.0 to achieve the desired concentration of substrate. Each substrate concentration was in triplicate and the final assay volume was 1.0 ml. Included in the 1 ml aliquot was 20 μl of enzyme and 50 μl of 10 mM dithiothreitol. The samples were incubated at 37° C. for 30 min before stopping the reaction with the addition of 200 μl of 1.7 M acetic acid. The samples were assayed for released 7-amino-methyl-coumarin as above. The kinetic constants Vmax and Km were obtained by non-linear regression according to the method of Barrett et al (Biochem J. 201, p.189-198) except that 20 μl of cathepsin L2 was incubated with 20 μl of 1.0 μM-0.1 μM E-64 in a final volume of 80 μl 0.1M glycine pH 7.0 for 30 mins at 37° C. Twenty μl of 1/10 cathepsin L1 was incubated with 20 μl of 5 μM-0.5 μM E-64 in a final volume of 80 μl 0.1M glycine pH 7.0 for 30 min. at 37° C. All of the incubated sample was assayed for the fluorogenic substrate Z-Phe-Arg-AMC as above.

F. hepatica cathepsin L2 = experiment: Enzyme kinetic studies, cathepsin L2; type: biochemical, Fasciola hepatica; conditions: 0.1M glycine pH 7.0, 37° C.
Procedure: as §3

[2] = tested on: E/S products from 3 week-old F. hepatica; experiment: Specific activity against fluorogenic substrates by E/S products, 3 week-old flukes; type: biochemical, Fasciola hepatica; conditions: E/S products of 3 week-old flukes; means of duplicate results
Procedure: as §1, §2

[3] = tested on: E/S products from newly excysted juvenile (NEJ) F. hepatica; experiment: Specific activity against fluorogenic substrates by E/S products, NEJ; type: biochemical, Fasciola hepatica; conditions: E/S products of NEJ; means of duplicate results
Procedure: F. hepatica metacercariae (Pfizer strain) encysted on cellophane were removed with a Pasteur pipette into 2% sodium hypochlorite, vortexed and incubated for 30 minutes at 37° C. This procedure removes the outer cyst of the metacercariae. The metacercariae, now only with the inner transparent cyst, were placed into microtitre wells with an automatic pipette using a stereomicroscope and washed in distilled water. They were then incubated in a medium prepared by mixing equal volumes of 0.05M HCl with a solution containing 1% sodium bicarbonate, 0.8% NaCl and 0.2% sodium taurocholate. After 3 hours at 37° C. 70-80% of the flukes were excysted and actively moving. The excysted juveniles were separated from the inner cysts using a 20 μl automatic pipette under a stereomicroscope.
as §2

[4] = tested on: E/S products from 5 week-old F. hepatica; experiment: Specific activity against fluorogenic substrates by E/S products, 5 week-old flukes; type: biochemical, Fasciola hepatica; conditions: E/S products of 5 week-old flukes; means of duplicate results
Procedure: as §1, §2

[5] = tested on: antibody-mediated attachment of eosinophils to NEJ; experiment: Eosinophil adherence to NEJ in vitro assay; type: cell-based, rat
Procedure: Twenty newly excysted juvenile F. hepatica were dispensed into 100 μl of rat eosinophil-rich suspension in microtitre wells. According to the experiment either 100 μl aliquots of immune serum or control serum were added with or without E/S products or purified Cathepsin L1. The cysteine proteinase inhibitor leupeptin was added in some experiments at a final concentration of 5 μg/ml. All dilutions were made in Roswell Park Memorial Institute 1640 with 4% heat inactivated fetal calf serum. At the end of the experiment juvenile flukes were carefully transferred to a microscope slide and examined microscopically at 40× and 100× magnifications. Individual flukes were examined and the number of bound eosinophils counted. Those NEJ with more than 20 cells attached were considered positive.
When rat eosinophil-rich cell populations were added to NEJ in the presence of immune rat serum (IRS obtained from female Wistar rats orally infected with 30 F. hepatica metacercariae; blood was taken after 5 weeks of infection; the sera obtained were pooled, aliquoted and stored at −20° C. until required; control serum was collected from uninfected rats), cell adherence was consistently high (>90% positive NEJ after 2 hours, FIG. 4, panel A; the scale along the base of the Figure represents percentage of positive NEJ as defined above; the 5 bars represent counts at 2 hour intervals). […]

NEJ = tested on: NEJ; parameters: species or system Fasciola hepatica; conditions: added to NEJ in culture; data not shown
[6] = tested on: IgG cleaving activity of the E/S products from NEJ flukes; experiment: Inhibition of IgG cleaving activity of NEJ E/S products; type: biochemical, Fasciola hepatica; conditions: final concentration of 50 μM
Procedure: (§4) As IgG is involved in antibody-dependent cellular cytotoxicity against helminth parasites and since adult fluke Cathepsin-L1 cleaves mouse IgG2a [see above], the E/S products from NEJ, 3 week-old, 5 week-old and adult flukes were tested for antibody cleaving activity. E/S products from all F. hepatica stages examined were capable of cleaving the purified IgG at the hinge region of the heavy chain and thereby releasing the Fc portion from the antibody binding regions.

[7] = tested on: IgG cleaving activity of the E/S products from adult flukes; experiment: Inhibition of IgG cleaving activity of adult fluke E/S products; type: biochemical, Fasciola hepatica; conditions: final concentration of 50 μM
Procedure: as §4

Row | Structure (SMILES) | Specific activity against fluorogenic substrates, Adults [1] | Kcat (F. hepatica cathepsin L1) | Km (F. hepatica cathepsin L1) | Kcat (F. hepatica cathepsin L2) | Km (F. hepatica cathepsin L2) | Specific activity against fluorogenic substrates, 3 weeks [2] | Specific activity against fluorogenic substrates, NEJ [3] | Specific activity against fluorogenic substrates, 5 weeks [4] | effect on action of E/S products and Cathepsin L1 on eosinophil attachment ([5]; 5 μg/ml, with immune serum and NEJ or mature fluke E/S products or purified Cathepsin L1) | rate at which eosinophils are lost from the NEJ surface ([5]; in the presence of immune serum, FIG. 4 panel I) | viability of NEJ (NEJ) | inhibition of IgG cleaving activity [6] | inhibition of IgG cleaving activity [7]
1 | Cc1cc(=O)oc2cc(NC(=O)[C@H](CCCN=C(N)N)NC(=O)[C@H](CCCN=C(N)N)NC(=O)OCc3ccccc3)ccc12 [Z-Arg-Arg-AMC] (Cbz-Arg-Arg-{AMC}) | 21 μmol AMC/min/Mg | 0.002 s⁻¹ | 65.6 µM | 0.02 s⁻¹ | 9.07 µM | 0 μmol AMC/min/Mg | 0 μmol AMC/min/Mg | 2 μmol AMC/min/Mg | – | – | – | – | –
2 | Cc1ccc(S(=O)(=O)NCC(=O)N2CCC[C@H]2C(=O)N[C@@H](CCCNC(=N)N)C(=O)Nc2ccc3c(C)cc(=O)oc3c2)cc1 [Tos-Gly-Pro-Arg-AMC] (Tos-Gly-Pro-Arg-{AMC}) | – | 0.03 s⁻¹ | 26 µM | 1.93 s⁻¹ | 17.1 µM | – | – | – | – | – | – | – | –
3 | Cc1cc(=O)oc2cc(NC(=O)[C@H](CCCCN)NC(=O)[C@H](Cc3ccccc3)NC(=O)[C@H](C)NC(=O)CCC(=O)O)ccc12 [Suc-Ala-Phe-Lys-AMC] (Suc-Ala-Phe-Lys-{AMC}) | – | 0.05 s⁻¹ | 65.3 µM | 0.14 s⁻¹ | 41.1 µM | – | – | – | – | – | – | – | –
4 | CC(=O)N[C@@H](CC(C)C)C(=O)N[C@@H](CC(C)C)C(=O)N[C@H](C=O)CCCNC(=N)N [leupeptin] | – | – | – | – | – | – | – | – | inhibits the effect of the E/S products and Cathepsin L1 | slightly reduces | did not affect their viability | – | –
5 | Cc1cc(=O)oc2cc(NC(=O)[C@H](Cc3ccc(O)cc3)NC(=O)[C@@H](NC(=O)[C@@H](N)CC(C)C)C(C)C)ccc12 [H-Leu-Val-Tyr-AMC] (H-Leu-Val-Tyr-{AMC}) | – | 0.02 s⁻¹ | 5.4 µM | 0.21 s⁻¹ | 3.75 µM | – | – | – | – | – | – | – | –
6 | Cc1ccc(S(=O)(=O)NCC(=O)N2CCC[C@H]2C(=O)N[C@@H](CCCCN)C(=O)Nc2ccc3c(C)cc(=O)oc3c2)cc1 [Tos-Gly-Pro-Lys-AMC] (Tos-Gly-Pro-Lys-{AMC}) | – | 0.03 s⁻¹ | 107 µM | 1.37 s⁻¹ | 35.5 µM | – | – | – | – | – | – | – | –
7 | Cc1cc(=O)oc2cc(NC(=O)[C@H](CCCN=C(N)N)NC(=O)[C@@H](NC(=O)[C@H](Cc3ccccc3)NC(=O)c3ccccc3)C(C)C)ccc12 [Bz-Phe-Val-Arg-AMC] (Bz-Phe-Val-Arg-{AMC}) | – | 0.03 s⁻¹ | 9.25 µM | 0.06 s⁻¹ | 1.2 µM | – | – | – | – | – | – | – | –
8 | Cc1cc(=O)oc2cc(NC(=O)[C@H](CCCNC(=N)N)NC(=O)[C@H](Cc3ccccc3)NC(=O)OCc3ccccc3)ccc12 [Z-Phe-Arg-AMC, benzyloxycarbonyl-L-phenylalanyl-L-arginyl-7-amido-4-methyl coumarin] (Cbz-Phe-Arg-{AMC}) | 1254 μmol AMC/min/Mg | 1.08 s⁻¹ | 14.7 µM | 0.56 s⁻¹ | 3.76 µM | 29 μmol AMC/min/Mg | 25 μmol AMC/min/Mg | 90 μmol AMC/min/Mg | – | – | – | – | –
9 | C[C@H](NC(=O)[C@H](Cc1ccccc1)NC(=O)OCc1ccccc1)C(=O)C=[N+]=[N-] [Z-phe-ala-CHN2] | – | – | – | – | – | – | – | – | – | – | – | completely inhibited | completely inhibited
10 | Cc1cc(=O)oc2cc(NC(=O)[C@H](CCCN=C(N)N)NC(=O)OCc3ccccc3)ccc12 [Z-Arg-AMC] | 63 μmol AMC/min/Mg | 0.04 s⁻¹ | 20.4 µM | 0.09 s⁻¹ | 14.1 µM | 3 μmol AMC/min/Mg | 1 μmol AMC/min/Mg | 5 μmol AMC/min/Mg | – | – | – | – | –
11 | Cc1cc(=O)oc2cc(NC(=O)[C@H](CCCN=C(N)N)NC(=O)[C@@H]3CCCN3C(=O)[C@@H](NC(=O)OC(C)(C)C)C(C)C)ccc12 [Boc-Val-Pro-Arg-AMC] (Boc-Val-Pro-Arg-{AMC}) | – | 0.02 s⁻¹ | 43.6 µM | 1.19 s⁻¹ | 24.8 µM | – | – | – | – | – | – | – | –
12 | Cc1cc(=O)oc2cc(NC(=O)[C@H](Cc3ccc(O)cc3)NC(=O)[C@@H](NC(=O)[C@H](CC(C)C)NC(=O)[C@H](CC(C)C)NC(=O)CCC(=O)O)C(C)C)ccc12 [Suc-Leu-Leu-Val-Tyr-AMC] (Suc-LLVY-{AMC}) | – | 0.01 s⁻¹ | 38.5 µM | 0.08 s⁻¹ | 23.3 µM | – | – | – | – | – | – | – | –
13 | Cc1cc(=O)oc2cc(NC(=O)[C@H](CCCCN)NC(=O)[C@H](CC(C)C)NC(=O)[C@@H](NC(=O)OC(C)(C)C)C(C)C)ccc12 [Boc-Val-Leu-Lys-AMC] (Boc-Val-Leu-Lys-{AMC}) | – | 7.90 s⁻¹ | 34.7 µM | 3.75 s⁻¹ | 7.34 µM | – | – | – | – | – | – | – | –

From patent US6623735B1, “Vaccine containing a thiol protease” (priority 1992, dated 2003)
